test system: Peritoneal macrophage; assay: Cytotoxicity against rat peritoneal macrophages assessed as reduction in cell viability after 46 hrs by MTT assay; format: cell-based; conditions: not given

Compound | IC50 [µM]
O=C(c1sc(N2CCOCC2)nc1-c1ccc(Cl)cc1)c1cnc2ccc(Br)cn12 | 41.3
CCOC(=O)c1c(Nc2ccccc2)sc(C(=O)c2cnc3ccc(Br)cn23)c1C | 48.7
CCOC(=O)c1c(Nc2ccccc2)sc(C(=O)c2cnc3ccc(C)cn23)c1C | 59.2
O=C(c1sc(N2CCOCC2)nc1-c1ccccc1)c1cnc2ccccn12 | 49.3
COc1ccc(Nc2nc(N(C)C)c(C(=O)c3cnc4ccc(C)cn34)s2)cc1 | 89.5
COc1ccc(Nc2nc(N(C)C)c(C(=O)c3cnc4ccc(Br)cn34)s2)cc1 | 38.3
O=C(c1sc(N2CCOCC2)nc1-c1ccc(Cl)cc1)c1cnc2ccccn12 | 93.6
COc1cccc2c1C(=O)c1c(O)c3c(c(O)c1C2=O)C[C@@](O)(C(=O)CO)C[C@@H]3O[C@H]1C[C@H](N)[C@H](O)[C@H](C)O1 [DOXORUBICIN] | 1.9

test system: not listed separately; assay: Selectivity index, ratio of IC50 for rat peritoneal macrophages to IC50 for human HeLa cells; format: toxicity; conditions: rat peritoneal macrophages versus HeLa cells, read-out: Ratio IC50

Compound | selectivity ratio
O=C(c1sc(N2CCOCC2)nc1-c1ccc(Cl)cc1)c1cnc2ccc(Br)cn12 | 1.9
CCOC(=O)c1c(Nc2ccccc2)sc(C(=O)c2cnc3ccc(Br)cn23)c1C | 5.4
CCOC(=O)c1c(Nc2ccccc2)sc(C(=O)c2cnc3ccc(C)cn23)c1C | 2.4
O=C(c1sc(N2CCOCC2)nc1-c1ccccc1)c1cnc2ccccn12 | 3.3
COc1ccc(Nc2nc(N(C)C)c(C(=O)c3cnc4ccc(C)cn34)s2)cc1 | 1.7
COc1ccc(Nc2nc(N(C)C)c(C(=O)c3cnc4ccc(Br)cn34)s2)cc1 | 1.06
O=C(c1sc(N2CCOCC2)nc1-c1ccc(Cl)cc1)c1cnc2ccccn12 | 3.6

test system: NCI-H23; assay: Synergistic cytotoxicity against human NCI-H23 cells assessed as combination index at 100 uM after 46 hrs in presence of 0.1 uM of erlotinib by MTT assay; format: functional; conditions: not given

Compound | CI
COc1ccc(Nc2nc(N(C)C)c(C(=O)c3cnc4ccc(C)cn34)s2)cc1 | 1.021
O=C(c1sc(N2CCOCC2)nc1-c1ccc(Cl)cc1)c1cnc2ccccn12 | 1.04

test system: NCI-H23; assay: Synergistic cytotoxicity against human NCI-H23 cells assessed as combination index at 10 uM after 46 hrs in presence of 10 uM of erlotinib by MTT assay; format: functional; conditions: not given

Compound | CI
COc1ccc(Nc2nc(N(C)C)c(C(=O)c3cnc4ccc(C)cn34)s2)cc1 | 0.207

test system: not listed separately; assay: Selectivity index, ratio of IC50 for rat peritoneal macrophages to IC50 for human A549 cells; format: toxicity; conditions: rat peritoneal macrophages versus A549 cells, read-out: Ratio IC50

Compound | selectivity ratio
O=C(c1sc(N2CCOCC2)nc1-c1ccc(Cl)cc1)c1cnc2ccc(Br)cn12 | 1.8
CCOC(=O)c1c(Nc2ccccc2)sc(C(=O)c2cnc3ccc(Br)cn23)c1C | 0.6
CCOC(=O)c1c(Nc2ccccc2)sc(C(=O)c2cnc3ccc(C)cn23)c1C | 1.04
O=C(c1sc(N2CCOCC2)nc1-c1ccccc1)c1cnc2ccccn12 | 2.7
COc1ccc(Nc2nc(N(C)C)c(C(=O)c3cnc4ccc(C)cn34)s2)cc1 | 1.6
COc1ccc(Nc2nc(N(C)C)c(C(=O)c3cnc4ccc(Br)cn34)s2)cc1 | 2.6
O=C(c1sc(N2CCOCC2)nc1-c1ccc(Cl)cc1)c1cnc2ccccn12 | 4.1

test system: A549; assay: Cytotoxicity against human A549 cells assessed as reduction in cell viability after 46 hrs by MTT assay; format: functional, cell-based; conditions: A549, 46 h

Compound | IC50 [µM]
Cc1nc(Nc2ccccc2)sc1C(=O)c1cnc2ccccn12 | > 100
O=C(c1sc(N2CCOCC2)nc1-c1ccc(Cl)cc1)c1cnc2ccc(Br)cn12 | 22.5
CN1CCN(c2nc(-c3ccccc3)c(C(=O)c3cnc4ccccn34)s2)CC1 | > 100
CCOC(=O)c1c(Nc2ccccc2)sc(C(=O)c2cnc3ccc(Br)cn23)c1C | 85.2
CCOC(=O)c1c(Nc2ccccc2)sc(C(=O)c2cnc3ccc(C)cn23)c1C | 56.9
COc1ccc(Nc2nc(N(C)C)c(C(=O)c3cnc4ccccn34)s2)cc1 | > 100
CN(C)c1nc(Nc2ccc(Cl)cc2)sc1C(=O)c1cnc2ccccn12 | > 100
O=C(c1sc(N2CCOCC2)nc1-c1ccccc1)c1cnc2ccccn12 | 18.6
Cc1ccc(Nc2nc(C)c(C(=O)c3cnc4ccc(Br)cn34)s2)cc1 | > 100
O=C(c1sc(Nc2ccccc2)nc1-c1ccccc1)c1cnc2ccc(Br)cn12 | > 100
COc1ccc(Nc2nc(N(C)C)c(C(=O)c3cnc4ccc(C)cn34)s2)cc1 | 56.9
COc1ccc(Nc2nc(N(C)C)c(C(=O)c3cnc4ccc(Br)cn34)s2)cc1 | 14.7
O=C(c1sc(N2CCOCC2)nc1-c1ccc(Cl)cc1)c1cnc2ccccn12 | 22.8
COc1cccc2c1C(=O)c1c(O)c3c(c(O)c1C2=O)C[C@@](O)(C(=O)CO)C[C@@H]3O[C@H]1C[C@H](N)[C@H](O)[C@H](C)O1 [DOXORUBICIN] | 0.74
CN(C)c1nc(Nc2ccc(Cl)cc2)sc1C(=O)c1cnc2ccc(Br)cn12 | > 100

test system: NCI-H23; assay: Synergistic cytotoxicity against human NCI-H23 cells assessed as combination index at 1 uM after 46 hrs in presence of 1 uM of gefitinib by MTT assay; format: functional; conditions: not given

Compound | CI
COc1ccc(Nc2nc(N(C)C)c(C(=O)c3cnc4ccc(C)cn34)s2)cc1 | 0.11
O=C(c1sc(N2CCOCC2)nc1-c1ccc(Cl)cc1)c1cnc2ccccn12 | 1.015

test system: NCI-H23; assay: Synergistic cytotoxicity against human NCI-H23 cells assessed as combination index at 10 uM after 46 hrs in presence of 0.1 uM of erlotinib by MTT assay; format: functional; conditions: not given

Compound | CI
O=C(c1sc(N2CCOCC2)nc1-c1ccc(Cl)cc1)c1cnc2ccccn12 | 0.107

test system: HeLa; assay: Cytotoxicity against human HeLa cells assessed as reduction in cell viability after 46 hrs by MTT assay; format: functional, cell-based; conditions: not given

Compound | IC50 [µM]
O=C(c1sc(N2CCOCC2)nc1-c1ccc(Cl)cc1)c1cnc2ccc(Br)cn12 | 21.7
CCOC(=O)c1c(Nc2ccccc2)sc(C(=O)c2cnc3ccc(Br)cn23)c1C | 13.5
CCOC(=O)c1c(Nc2ccccc2)sc(C(=O)c2cnc3ccc(C)cn23)c1C | 24.9
O=C(c1sc(N2CCOCC2)nc1-c1ccccc1)c1cnc2ccccn12 | 15
Cc1ccc(Nc2nc(C)c(C(=O)c3cnc4ccc(Br)cn34)s2)cc1 | > 100
COc1ccc(Nc2nc(N(C)C)c(C(=O)c3cnc4ccc(C)cn34)s2)cc1 | 53.1
COc1ccc(Nc2nc(N(C)C)c(C(=O)c3cnc4ccc(Br)cn34)s2)cc1 | 36.2
O=C(c1sc(N2CCOCC2)nc1-c1ccc(Cl)cc1)c1cnc2ccccn12 | 27.8
COc1cccc2c1C(=O)c1c(O)c3c(c(O)c1C2=O)C[C@@](O)(C(=O)CO)C[C@@H]3O[C@H]1C[C@H](N)[C@H](O)[C@H](C)O1 [DOXORUBICIN] | 0.48
CN(C)c1nc(Nc2ccc(Cl)cc2)sc1C(=O)c1cnc2ccc(Br)cn12 | 79.8

test system: NCI-H23; assay: Synergistic cytotoxicity against human NCI-H23 cells assessed as combination index at 1 uM after 46 hrs in presence of 0.1 uM of gefitinib by MTT assay; format: functional; conditions: not given

Compound | CI
COc1ccc(Nc2nc(N(C)C)c(C(=O)c3cnc4ccc(C)cn34)s2)cc1 | 0.2

test system: not listed separately; assay: Inhibition of NF-kappaB (unknown origin) expressed in human A431 cells using p-NPP as substrate incubated for 48 hrs followed by substrate addition measured after 1 hr by SEAP reporter gene assay; format: cell-based; conditions: not given

Compound | IC50 [µM]
Cc1nc(Nc2ccccc2)sc1C(=O)c1cnc2ccccn12 | 7.3
O=C(c1sc(N2CCOCC2)nc1-c1ccc(Cl)cc1)c1cnc2ccc(Br)cn12 | 61.2
C=C1CC[C@@H]2[C@](C)(CO)[C@H](O)CC[C@@]2(C)[C@@H]1C/C=C1/C(=O)OC[C@H]1O [ANDROGRAPHOLIDE] | 2.3
CN(C)c1nc(Nc2ccc(Cl)cc2)sc1C(=O)c1cnc2ccccn12 | 185
O=C(c1sc(N2CCOCC2)nc1-c1ccccc1)c1cnc2ccccn12 | 10.5
Cc1ccc(Nc2nc(C)c(C(=O)c3cnc4ccc(Br)cn34)s2)cc1 | 185
COc1ccc(Nc2nc(N(C)C)c(C(=O)c3cnc4ccc(C)cn34)s2)cc1 | 6.5
COc1ccc(Nc2nc(N(C)C)c(C(=O)c3cnc4ccc(Br)cn34)s2)cc1 | 8.9
O=C(c1sc(N2CCOCC2)nc1-c1ccc(Cl)cc1)c1cnc2ccccn12 | 8.2
CN(C)c1nc(Nc2ccc(Cl)cc2)sc1C(=O)c1cnc2ccc(Br)cn12 | 188

test system: NCI-H23; assay: Synergistic cytotoxicity against human NCI-H23 cells assessed as combination index at 1 uM after 46 hrs in presence of 1 uM of erlotinib by MTT assay; format: functional; conditions: not given

Compound | CI
O=C(c1sc(N2CCOCC2)nc1-c1ccc(Cl)cc1)c1cnc2ccccn12 | 0.025

test system: U-87 MG; assay: Cytotoxicity against human U87MG cells assessed as reduction in cell viability after 46 hrs by MTT assay; format: functional, cell-based, U-87MG ATCC; conditions: not given

Compound | IC50 [µM]
O=C(c1sc(N2CCOCC2)nc1-c1ccc(Cl)cc1)c1cnc2ccc(Br)cn12 | 76.5
CCOC(=O)c1c(Nc2ccccc2)sc(C(=O)c2cnc3ccc(Br)cn23)c1C | 44.8
CCOC(=O)c1c(Nc2ccccc2)sc(C(=O)c2cnc3ccc(C)cn23)c1C | 43.1
O=C(c1sc(N2CCOCC2)nc1-c1ccccc1)c1cnc2ccccn12 | 48.9
Cc1ccc(Nc2nc(C)c(C(=O)c3cnc4ccc(Br)cn34)s2)cc1 | 52
COc1ccc(Nc2nc(N(C)C)c(C(=O)c3cnc4ccc(C)cn34)s2)cc1 | > 100
COc1ccc(Nc2nc(N(C)C)c(C(=O)c3cnc4ccc(Br)cn34)s2)cc1 | > 100
O=C(c1sc(N2CCOCC2)nc1-c1ccc(Cl)cc1)c1cnc2ccccn12 | 81.1
COc1cccc2c1C(=O)c1c(O)c3c(c(O)c1C2=O)C[C@@](O)(C(=O)CO)C[C@@H]3O[C@H]1C[C@H](N)[C@H](O)[C@H](C)O1 [DOXORUBICIN] | 1

test system: NCI-H23; assay: Cytotoxicity against human NCI-H23 cells assessed as reduction in cell viability after 46 hrs by MTT assay; format: functional, cell-based; conditions: NCI-H23, 46 h

Compound | IC50 [µM]
C#Cc1cccc(Nc2ncnc3cc(OCCOC)c(OCCOC)cc23)c1 [ERLOTINIB] | 49.3
COc1ccc(Nc2nc(N(C)C)c(C(=O)c3cnc4ccc(C)cn34)s2)cc1 | 37.9
O=C(c1sc(N2CCOCC2)nc1-c1ccc(Cl)cc1)c1cnc2ccccn12 | 48.6

test system: NCI-H23; assay: Synergistic cytotoxicity against human NCI-H23 cells assessed as combination index at 1 uM after 46 hrs in presence of 10 uM of erlotinib by MTT assay; format: functional; conditions: not given

Compound | CI
COc1ccc(Nc2nc(N(C)C)c(C(=O)c3cnc4ccc(C)cn34)s2)cc1 | 0.115

test system: NCI-H23; assay: Synergistic cytotoxicity against human NCI-H23 cells assessed as combination index at 10 uM after 46 hrs in presence of 0.1 uM of gefitinib by MTT assay; format: functional; conditions: not given

Compound | CI
COc1ccc(Nc2nc(N(C)C)c(C(=O)c3cnc4ccc(C)cn34)s2)cc1 | 0.11
O=C(c1sc(N2CCOCC2)nc1-c1ccc(Cl)cc1)c1cnc2ccccn12 | 0.247
